Results: patent publication US5686460A, “Carbocyclic diarylmethylene derivatives, processes for their preparation and their uses in therapeutics” (Laboratoires UPSA, priority 1996, dated 1997)

Experiments:
COX-2 = molecular target: T1, COX-2 (Ovis aries, UniProt P79208); experiment: Inhibition of the COX-2 enzymatic activity (PGE2 determined by EIA); assay type: biochemical, ewe; conditions: arachidonic acid 4 μM, mean±standard deviations of 4 determinations; for inhibition at 10 µM: 10^-5 M; for inhibition at 0.1 µM: 10^-7 M
T1 construct: purified enzyme from ewe placenta; from tissue; host or cells: ewe placenta
T1 sequence (P79208 17-603): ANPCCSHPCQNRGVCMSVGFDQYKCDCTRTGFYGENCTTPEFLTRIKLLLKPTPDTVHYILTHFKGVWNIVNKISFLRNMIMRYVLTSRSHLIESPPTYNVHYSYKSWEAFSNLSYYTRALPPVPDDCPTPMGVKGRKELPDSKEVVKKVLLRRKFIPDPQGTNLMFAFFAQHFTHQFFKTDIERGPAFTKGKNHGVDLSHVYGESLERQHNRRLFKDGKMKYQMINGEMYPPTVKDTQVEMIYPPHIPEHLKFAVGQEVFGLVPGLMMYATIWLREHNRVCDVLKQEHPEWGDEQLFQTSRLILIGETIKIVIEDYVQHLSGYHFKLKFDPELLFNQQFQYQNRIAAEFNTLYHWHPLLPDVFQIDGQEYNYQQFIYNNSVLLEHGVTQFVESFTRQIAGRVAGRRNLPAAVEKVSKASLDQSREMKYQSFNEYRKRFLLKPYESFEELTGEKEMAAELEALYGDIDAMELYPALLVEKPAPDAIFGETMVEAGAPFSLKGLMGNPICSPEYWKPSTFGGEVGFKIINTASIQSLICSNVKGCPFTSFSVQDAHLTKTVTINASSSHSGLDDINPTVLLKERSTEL
Experimental: (§1) Inhibition of the COX-1 and COX-2 enzymatic activities The molecule studied is preincubated for 10 minutes at 25° C. with 2 U of COX-1 (purified enzyme from ram seminal vesicles) or 1 U of COX-2 (purified enzyme from ewe placenta). Arachidonic acid (6 μM for COX-1, 4 μM for COX-2) is added to the reaction medium and incubation is carried out for 5 minutes at 25° C. When incubation has ended, the enzymatic reaction is stopped by the addition of 1N HCl and the PGE2 produced is determined by EIA. The results are expressed as the percentage inhibition of the COX-1 and COX-2 enzymatic activities and correspond to mean±standard deviations of the average of 4 determinations.

carrageenin edema = carrageenin edema test (anti-inflammatory activity); assay type: in vivo; conditions: rat, oral, 100 mg/kg, 3 hours, n=6 animals per dose
Experimental: (§2) The anti-inflammatory activity of the compounds of the Examples was evaluated by the carrageenin edema method and the analgesic activity was evaluated by the kaolin arthritis method.
Anti-inflammatory activity:
The anti-inflammatory activity is evaluated in the rat by the carrageenin edema test. The product is administered orally at a rate of 2.5 ml/100 g (n=6 animals per dose) 2 h 30 rain after oral hyperhydration (2.5 ml/100 g). One hour after administration of the product, the edema is induced by the plantar subcutaneous injection of 2% aqueous carrageenin solution. The percentage inhibition of the volume of the edema is calculated after 3 hours by measurement of the volume of the paw with a mercury plethysmograph.

kaolin arthritis = kaolin arthritis test (analgesic activity); assay type: in vivo; conditions: rat, oral, 100 mg/kg, 5 h 30 after administration, n=10 animals per dose
Experimental: as §2
The analgesic activity is evaluated in the rat by the kaolin arthritis test. Thirty minutes after the intra-articular administration of 10% aqueous kaolin suspension, the product is administered orally at a rate of 1 ml/100 g (n=10 animals per dose). The percentage inhibition of the animal's pain response (grading of the gait) is calculated 5 h 30 rain after administration of the product.

COX-1 = experiment: Inhibition of the COX-1 enzymatic activity (PGE2 determined by EIA); assay type: biochemical, ram; conditions: 10^-5 M; arachidonic acid 6 μM; mean±standard deviations of 4 determinations
Experimental: as §1

| inhibition at 10 µM (COX-2) | inhibition at 0.1 µM (COX-2) | Structure (SMILES) | Anti-inflammatory activity % inhibition (of the volume of the edema) (carrageenin edema) | Analgesic activity % inhibition (of the animal's pain response, grading of the gait) (kaolin arthritis) | % inhibition of the COX-1 activity (COX-1) |
| --- | --- | --- | --- | --- | --- |
| 66 ± 4% | 21 ± 4% | CS(=O)(=O)c1ccc(C(=C2CCCC2)c2ccc(F)cc2)cc1 [Example 3, 4-[(Cyclopentylidene)(4-fluorophenyl)methyl]methylsulfonylbenzene] |  |  |  |
| 57 ± 3% |  | CS(=O)(=O)c1ccc(C(=C2C=CC=C2)c2ccc(F)cc2)cc1 [Example 12, 4-[(Cyclopenta-2,4-dienylidene)(4-fluorophenyl)methyl]methyl-sulfonylbenzene] |  |  |  |
| 65 ± 2% | 18 ± 8% | CS(=O)(=O)c1ccc(C(=C2CCCC2)c2ccc(Cl)nc2)cc1 [Example 6, 2-Chloro-5-[(cyclopentylidene)(4-methylsulfonylphenyl)methyl]-pyridine] | 45.8 ± 9.8% | 55.0 ± 15.7% | 0 ± 0% |
